Assay results from patent US12285012B2, “Compositions comprising pyridine carboxylate herbicides with acetolactate synthase (ALS) inhibitor herbicides” (Corteva Agriscience LLC, priority 2018, dated 2025).
Like-named read-outs stand apart in the source and are kept apart here.

What was measured:
[1] = tested on: spring wheat (TRZAS); assay type: in vivo, Triticum aestivum
In short: (§1)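 Visual injury ratings (0 = no injury, 100 = complete kill) were taken 20–22 d after treatment relative to solvent-blank controls. Applications were made to plants at the second or third true leaf stage, using emulsifiable concentrates with cloquintocet-mexyl safener.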

[2] = tested on: Canadian thistle (CIRAR, Cirsium arvense); assay: Greenhouse postemergence herbicidal effect; assay type: in vivo
In short: as §1

[3] = tested on: spring rape (BRSNN, Brassica napus); assay: Greenhouse postemergence herbicidal effect; assay type: in vivo
In short: (§2)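 Injury was rated visually after 20-22 d on a 0 (none) to 100% (complete kill) scale relative to solvent-sprayed controls, with sub-irrigation to avoid wash-off. Rates were given in g ae/ha or g ai/ha depending on component.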

[4] = tested on: grain sorghum (SORVU, Sorghum vulgare); assay: Greenhouse postemergence herbicidal effect; assay type: in vivo
Excerpt: (§3) Seeds of the desired test plant species were planted in a 90:10% v/v (volume/volume) mixture of PRO-MIX® BX (Premier Tech Horticulture, Quakertown, PA, USA) and PROFILE® GREENS GRADE™ (Profile Products LLC, Buffalo Grove, IL, USA) planting mixture, which typically has a pH of 5.2 to 6.2 and an organic matter content of at least 50 percent, in plastic pots with a surface area of 103.2 square centimeters (cm^2). In some aspects, to ensure good germination and healthy plants, a fungicide treatment and/or other chemical or physical treatment was applied. The plants were grown for 7-36 days (d) in a greenhouse with an approximate 14-hour (h) photo-period which was maintained at about 23° C. during the day and 22° C. during the night. Nutrients and water were added on a regular basis and supplemental lighting was provided with overhead metal halide 1000-Watt lamps as necessary. The plants were employed for testing when they reached the second or third true leaf stage.
(§4) Emulsifiable concentrates of each of each pyridine carboxylate herbicide (Compound A or Compound B) were prepared at 100 grams acid equivalent per liter (g ae/L). The emulsifiable concentrates also included a safener, cloquintocet-mexyl, at 120 grams active ingredient per liter (g ai/L), unless otherwise noted below. An aliquot of each emulsifiable concentrate was placed in a 25 mL glass vial and diluted with an aqueous mixture of 1.25% (v/v) ACTIROB® B esterified rapeseed oil (Bayer Crop Science, Research Triangle Park, NC, USA) or MSO® Concentrate with LECI-TECH® methylated soybean oil (Loveland Products, Loveland, CO, USA) to obtain concentrated stock solutions at the highest application rate for each herbicide, based upon a 12 milliliter (mL) application volume at a rate of 187 liters per hectare (L/ha). The concentrated stock solutions were further diluted with an aqueous mixture of 1.25% v/v ACTIROB® B or MSO® Concentrate with LECI-TECH® to obtain stock solutions at reduced application rates for each herbicide. Spray solutions of the herbicide combinations (Compound A or Compound B plus ALS herbicide) were prepared by adding weighed amounts or aliquots of the ALS herbicides to the stock solutions of Compound A or Compound B to form 12-mL spray solutions in two- or three-way combinations.
(§5) The spray solutions were applied to the plant material with an overhead Mandel track sprayer equipped with 8002E nozzles calibrated to deliver 187 L/ha over an application area of 0.503 square meters (m^2) at a spray height of 18 inches (43 centimeters (cm)) above the average plant canopy. Control plants were sprayed in the same manner with the solvent blank. All pyridine carboxylate herbicide (component a) application rates are given as “g ae/ha” and all ALS inhibitor (component b) application rates are given as “g ai/ha.”
(§6) The treated plants and control plants were placed in a greenhouse as described above and watered by sub-irrigation to prevent wash-off of the test compounds. After 20-22 d, the condition of the test plants as compared with that of the control plants was determined visually and scored on a scale of 0 to 100 percent where 0 corresponds to no injury and 100 corresponds to complete kill.

[5] = tested on: common sunflower (HELAN, Helianthus annuus); assay: Greenhouse postemergence herbicidal effect; assay type: in vivo
Excerpt: as §3, §4, §5, §6

[6] = tested on: nutsedge (CYPES, Cyperus esculentus); assay: Greenhouse postemergence herbicidal effect; assay type: in vivo
Excerpt: as §3, §4, §5, §6

[7] = tested on: poinsettia (EPHHL, Euphorbia heterophylla); assay: Greenhouse postemergence herbicidal effect; assay type: in vivo
Excerpt: as §3, §4, §5, §6

[8] = tested on: ivyleaf morningglory (IPOHE, Ipomoea hederacea); assay: Greenhouse postemergence herbicidal effect; assay type: in vivo
Excerpt: as §3, §4, §5, §6

[9] = tested on: large crabgrass (DIGSA, Digitaria sanguinalis); assay: Greenhouse postemergence herbicidal effect; assay type: in vivo; conditions: 20 g/ha
Excerpt: as §3, §4, §5, §6

[10] = tested on: giant foxtail (SETFA, Setaria faberi); assay: Greenhouse postemergence herbicidal effect; assay type: in vivo; conditions: 20 g/ha
Excerpt: as §3, §4, §5, §6

[11] = tested on: wild oat (AVEFA, Avena fatua); assay: Greenhouse postemergence herbicidal effect; assay type: in vivo; conditions: 20 g/ha
Excerpt: as §3, §4, §5, §6

[12] = tested on: annual ryegrass (LOLMG=Lolium multiflorum subsp. gaudini); assay: Greenhouse postemergence herbicidal effect; assay type: in vivo; conditions: 20 g/ha
Excerpt: as §3, §4, §5, §6

[13] = tested on: small-flower flatsedge (CYPDI, Cyperus difformis); assay: Greenhouse postemergence herbicidal effect; assay type: in vivo; conditions: Penoxsulam 20 g/ha
Excerpt: as §3, §4, §5, §6

[14] = tested on: barnyard grass (ECHCG, Echinochloa crus-galli); assay: Greenhouse postemergence herbicidal effect; assay type: in vivo; conditions: Penoxsulam 20 g/ha
Excerpt: as §3, §4, §5, §6

[15] = tested on: broadleaf signalgrass (BRAPP, Brachiaria platyphylla); assay: Greenhouse postemergence herbicidal effect; assay type: in vivo; conditions: Penoxsulam 20 g/ha
Excerpt: as §3, §4, §5, §6

[16] = tested on: winter wheat (TRZAW); assay: Greenhouse postemergence crop phytotoxicity; assay type: in vivo, Triticum aestivum; conditions: Pyroxsulam 10 g/ha
Excerpt: as §3
as §4, with “combinations. […]” for “combinations.”
as §6

[17] = tested on: cleavers (GALAP, Galium aparine); assay: Greenhouse postemergence herbicidal effect; assay type: in vivo; conditions: Pyroxsulam 10 g/ha
In short: as §1

[18] = tested on: Russian thistle (SASKR, Salsola kali); assay: Greenhouse postemergence herbicidal effect; assay type: in vivo; conditions: Pyroxsulam 10 g/ha
In short: as §1

[19] = tested on: ivyleaf speedwell (VERHE, Veronica hederifolia); assay: Greenhouse postemergence herbicidal effect; assay type: in vivo; conditions: Pyroxsulam 10 g/ha
In short: as §1

[20] = tested on: purple deadnettle (LAMPU, Lamium purpureum); assay: Greenhouse postemergence herbicidal effect; assay type: in vivo; conditions: Pyroxsulam 10 g/ha
In short: as §1

[21] = tested on: field violet (VIOAR, Viola arvensis); assay: Greenhouse postemergence herbicidal effect; assay type: in vivo; conditions: Pyroxsulam 10 g/ha
In short: as §1

[22] = tested on: wild chamomile (MATCH, Matricaria chamomilla); assay: Greenhouse postemergence herbicidal effect; assay type: in vivo
In short: as §1

[23] = tested on: corn poppy (PAPRH, Papaver rhoeas); assay: Greenhouse postemergence herbicidal effect; assay type: in vivo; conditions: Pyroxsulam 10 g/ha
In short: as §1

[24] = tested on: field chamomile (ANTAR, Anthemis arvensis); assay: Greenhouse postemergence herbicidal effect; assay type: in vivo; conditions: Pyroxsulam 10 g/ha
In short: as §1

[25] = tested on: wild buckwheat (POLCO, Polygonum convolvulus); assay: Greenhouse postemergence herbicidal effect; assay type: in vivo
In short: as §1

[26] = tested on: bird's-eye speedwell (VERPE, Veronica persica); assay: Greenhouse postemergence herbicidal effect; assay type: in vivo; conditions: Pyroxsulam 10 g/ha
In short: as §1

[27] = tested on: wild mustard (SINAR, Sinapis arvensis); assay: Greenhouse postemergence herbicidal effect; assay type: in vivo
In short: as §1

[28] = tested on: chickweed (STEME, Stellaria media); assay: Greenhouse postemergence herbicidal effect; assay type: in vivo; conditions: Pyroxsulam 10 g/ha
In short: as §1

[29] = tested on: pigweed (AMARE, Amaranthus retroflexus); assay: Greenhouse postemergence herbicidal effect; assay type: in vivo; conditions: Pyroxsulam 15 g/ha
In short: as §1

[30] = tested on: false chamomile (MATIN, Matricaria inodora); assay: Greenhouse postemergence herbicidal effect; assay type: in vivo; conditions: Pyroxsulam 10 g/ha
In short: as §1

[31] = tested on: winter rape (BRSNW, Brassica napus); assay: Greenhouse postemergence herbicidal effect; assay type: in vivo
In short: as §1

[32] = tested on: R-PAPRH = Papaver rhoeas (corn poppy), herbicide-resistant; assay: Greenhouse postemergence herbicidal effect; assay type: in vivo; conditions: Pyroxsulam 10 g/ha
In short: as §1

[33] = tested on: wild pansy (VIOTR, Viola tricolor); assay: Greenhouse postemergence herbicidal effect; assay type: in vivo; conditions: Pyroxsulam 10 g/ha
In short: as §2

[34] = tested on: cornflower (CENCY, Cyanus segetum); assay: Greenhouse postemergence herbicidal effect; assay type: in vivo; conditions: Pyroxsulam 10 g/ha
In short: as §1

[35] = tested on: pineapple weed (MATMT, Matricaria discoidea); assay: Greenhouse postemergence herbicidal effect; assay type: in vivo; conditions: Pyroxsulam 10 g/ha
In short: as §1

[36] = tested on: shepherd's purse (CAPBP, Capsella bursa-pastoris); assay: Greenhouse postemergence herbicidal effect; assay type: in vivo; conditions: Pyroxsulam 10 g/ha
In short: as §1

[37] = tested on: winter barley (HORVW); assay: Greenhouse postemergence crop phytotoxicity; assay type: in vivo, Hordeum vulgare; conditions: Pyroxsulam 10 g/ha
Excerpt: as §3
as §4, with “combinations. […]” for “combinations.”
as §6

[38] = tested on: spring barley (HORVS); assay type: in vivo, Hordeum vulgare
In short: as §1

[39] = tested on: common lambsquarters (CHEAL, Chenopodium album L.); assay: Greenhouse postemergence herbicidal effect; assay type: in vivo; conditions: Pyroxsulam 15 g/ha
[40] = tested on: kochia (KCHSC, Kochia scoparia); assay: Greenhouse postemergence herbicidal effect; assay type: in vivo
In short: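 Plants at the second or third true leaf stage received overhead spray at 187 L/ha, with the pyridine carboxylate (plus cloquintocet-mexyl safener) alone or with ALS herbicides in 1.25% v/v crop oil. Rates are in g ae/ha or g ai/ha. Visual injury versus solvent-blank controls was scored 0–100% after 20-22 d in the greenhouse.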

COc1cc(OC)nc(Oc2cccc(Oc3nc(OC)cc(OC)n3)c2C(=O)ON=C(c2ccccc2)c2ccccc2)n1 [Pyribenzoxim, pyribenzoxim]
% visual injury ([1]; Pyribenzoxim 10 g/ha): 13%
% visual injury ([2]; Pyribenzoxim 10 g/ha): 90%
% visual injury ([3]; Pyribenzoxim 10 g/ha): 90%
% visual injury ([4]; Pyribenzoxim 10 g/ha): 73%
% visual injury ([5]; Pyribenzoxim 10 g/ha): 98%
% visual injury ([6]; Pyribenzoxim 10 g/ha): 0%
% visual injury ([7]; Pyribenzoxim 10 g/ha): 100%
% visual injury ([8]; Pyribenzoxim 10 g/ha): 78%

COc1cc(OC)nc(Oc2cccc(Oc3nc(OC)cc(OC)n3)c2C(=O)O)n1 [Bispyribac, bispyribac]
% visual injury ([1]; Bispyribac 90 g/ha): 18%
% visual injury ([2]; Bispyribac 90 g/ha): 90%
% visual injury ([3]; Bispyribac 90 g/ha): 88%
% visual injury ([4]; Bispyribac 90 g/ha): 73%
% visual injury ([5]; Bispyribac 90 g/ha): 97%
% visual injury ([6]; Bispyribac 90 g/ha): 20%
% visual injury ([7]; Bispyribac 90 g/ha): 95%
% visual injury ([8]; Bispyribac 90 g/ha): 70%

COc1cc(OC)nc(NC(=O)NS(=O)(=O)c2ncccc2C(=O)N(C)C)n1 [Nicosulfuron, nicosulfuron]
% visual injury, Obs [9]: 65%
% visual injury, Obs [10]: 100%
% visual injury, Obs [11]: 96%
% visual injury, Obs [12]: 96%
% visual injury, Obs ([6]; 20 g/ha): 40%

COc1cnc(OC)n2nc(NS(=O)(=O)c3c(OCC(F)F)cccc3C(F)(F)F)nc12 [Penoxsulam, penoxsulam]
% visual injury Obs [13]: 17%
% visual injury Obs [14]: 60%
% visual injury Obs [15]: 32%

pyroxsulam
% visual injury [16]: 0%
% visual injury ([1]; Pyroxsulam 10 g/ha): 0%
% visual injury Obs ([1]; Pyroxsulam 15 g/ha): 0%
Obs % visual injury ([1]; TRZAS, Pyroxsulam 15 g/ha): 0%
% visual injury [17]: 60%
% visual injury [18]: 100%
% visual injury [19]: 70%
% visual injury [20]: 50%
% visual injury [21]: 80%
% visual injury ([22]; Pyroxsulam 10 g/ha): 60%
% visual injury Obs ([22]; Pyroxsulam 15 g/ha): 53%
% visual injury [23]: 5%
% visual injury [24]: 60%
% visual injury ([25]; Pyroxsulam 10 g/ha): 93%
% visual injury Obs ([25]; Pyroxsulam 15 g/ha): 94%
% visual injury [26]: 75%
% visual injury ([27]; Pyroxsulam 10 g/ha): 99%
% visual injury Obs ([27]; Pyroxsulam 15 g/ha): 73%
% visual injury [28]: 100%
% visual injury Obs [29]: 98%
% visual injury ([2]; Pyroxsulam 10 g/ha): 75%
% visual injury Obs ([2]; Pyroxsulam 15 g/ha): 48%
% visual injury [30]: 65%
% visual injury ([31]; Pyroxsulam 10 g/ha): 99%
% visual injury Obs ([31]; Pyroxsulam 15 g/ha): 68%
% visual injury [32]: 10%
% visual injury [33]: 85%
% visual injury [34]: 70%
% visual injury [35]: 50%
% visual injury [36]: 90%
% visual injury [37]: 0%
% visual injury ([38]; Pyroxsulam 10 g/ha): 0%
% visual injury Obs ([38]; Pyroxsulam 15 g/ha): 0%
% visual injury Obs [39]: 73%
Obs % visual injury ([40]; KCHSC, Pyroxsulam 15 g/ha): 13%
% visual injury ([40]; Pyroxsulam 10 g/ha): 30%
% visual injury Obs ([40]; Pyroxsulam 15 g/ha): 55%
